# Active and inactive are the calls of the source. No cut-off for these calls is given here.
# What was measured:
# [1] = Subacute toxicity in Balb/C mouse assessed as change in body weight at 10 to 30 mg/kg, iv administered three times in a week for 2 weeks; format: organism-based; conditions: in vivo, 336 h, dose 10-30 mg/kg
# [2] = system: TMD8; assay: Antitumor activity against human TMD8 cells xenografted in mouse model assessed as inhibition of DNA methylation at 10 mg/kg, iv administered three times a week; format: functional, organism-based
# [3] = system: DOHH-2; assay: Induction of cell cycle arrest in human DOHH-2 cells assessed as accumulation of cells at S phase at 0.25 uM incubated for 24 hrs by PI staining based flow cytometry analysis (reference value: 40.7%); format: functional
# [4] = Terminal elimination half life in Sprague-Dawley rat at 10 mg/kg, po measured upto 24 hrs by LC/MS/MS analysis; format: ADME, organism-based; conditions: in vivo, read-out: beta t1/2 (converted)
# [5] = system: TMD8; assay: Induction of apoptosis in human TMD8 cells assessed as late apoptotic cells measured after 48 hrs by annexin-V/FITC and PI staining based flow cytometry analysis; format: functional, cell-based; conditions: dose 1-10 µM
# [6] = system: TMD8; assay: Induction of cell cycle arrest in human TMD8 cells assessed as accumulation of cells at G0-G1 phase at 1.0 uM incubated for 24 hrs by PI staining based flow cytometry analysis (reference value: 40.7%); format: functional
# [7] = system: TMD8; assay: Induction of cell cycle arrest in human TMD8 cells assessed as accumulation of cells at G2/M phase incubated for 24 hrs by PI staining based flow cytometry analysis; format: functional; conditions: dose 0.25-1 µM
# [8] = biological target: DNA (cytosine-5)-methyltransferase 3A (Homo sapiens, UniProt Q9Y6K1); assay: Inhibition of DNMT3A (unknown origin) at 5 uM preincubated for 15 mins followed by substrate and [3H-SAM] addition and measured after 60 mins by microbeta analysis relative to control; conditions: time 75.0 min
# DNA (cytosine-5)-methyltransferase 3A, sequence (Q9Y6K1 whole entry, looked up): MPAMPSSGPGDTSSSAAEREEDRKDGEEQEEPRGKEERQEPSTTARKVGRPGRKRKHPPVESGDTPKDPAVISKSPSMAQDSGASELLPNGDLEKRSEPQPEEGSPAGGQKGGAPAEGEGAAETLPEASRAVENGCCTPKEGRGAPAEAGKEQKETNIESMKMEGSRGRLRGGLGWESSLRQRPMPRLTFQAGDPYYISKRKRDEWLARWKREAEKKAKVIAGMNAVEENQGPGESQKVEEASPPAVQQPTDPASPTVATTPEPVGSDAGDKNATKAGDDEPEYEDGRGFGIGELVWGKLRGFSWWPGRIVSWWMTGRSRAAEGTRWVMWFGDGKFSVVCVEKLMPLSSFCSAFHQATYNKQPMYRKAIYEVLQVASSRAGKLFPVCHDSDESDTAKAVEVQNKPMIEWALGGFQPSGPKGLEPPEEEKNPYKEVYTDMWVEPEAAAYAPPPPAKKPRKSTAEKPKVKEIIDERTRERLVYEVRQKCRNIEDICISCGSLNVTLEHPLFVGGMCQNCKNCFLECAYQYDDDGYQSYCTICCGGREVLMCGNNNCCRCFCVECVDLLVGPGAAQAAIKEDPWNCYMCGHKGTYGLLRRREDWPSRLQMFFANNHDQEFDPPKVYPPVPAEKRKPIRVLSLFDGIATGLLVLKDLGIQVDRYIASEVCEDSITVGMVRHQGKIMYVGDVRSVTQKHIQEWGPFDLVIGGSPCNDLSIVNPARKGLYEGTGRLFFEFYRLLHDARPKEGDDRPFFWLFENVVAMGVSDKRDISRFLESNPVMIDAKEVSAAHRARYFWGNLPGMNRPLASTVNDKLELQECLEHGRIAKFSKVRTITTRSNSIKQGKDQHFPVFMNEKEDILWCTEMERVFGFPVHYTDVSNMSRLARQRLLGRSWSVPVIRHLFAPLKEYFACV
# [9] = system: DOHH-2; assay: Induction of cell cycle arrest in human DOHH-2 cells assessed as accumulation of cells at S phase at 1.0 uM incubated for 24 hrs by PI staining based flow cytometry analysis (reference value: 40.7%); format: functional
# [10] = Antitumor activity against human TMD8 cells harbouring […] xenografted in mouse model assessed as body weight change at 10 mg/kg, iv administered three times a week relative to control; format: functional
# [11] = system: Jurkat; assay: Antiproliferative activity against human Jurkat cells assessed as inhibition of cell viability measured after 72 hrs by MTT assay; format: functional, cell-based
# [12] = system: TMD8; assay: Induction of apoptosis in human TMD8 cells assessed as late apoptotic cells at 10 uM measured after 48 hrs by annexin-V/FITC and PI staining based flow cytometry analysis (reference value: 5.13%); format: functional
# [13] = system: DOHH-2; assay: Induction of apoptosis in human DOHH-2 cells assessed as late apoptotic cells at 0.25 uM measured after 48 hrs by annexin-V/FITC and PI staining based flow cytometry analysis (reference value: 3.66%); format: functional
# [14] = biological target: T1, DNA (cytosine-5)-methyltransferase 3B (Homo sapiens, UniProt Q9UBC3); assay: Inhibition of DNMT3B (unknown origin) preincubated for 15 mins followed by substrate and [3H-SAM] addition and measured after 60 mins by microbeta analysis
# [15] = system: MDA-MB-231; assay: Antiproliferative activity against human MDA-MB-231 cells assessed as inhibition of cell viability measured after 72 hrs by MTT assay; format: functional, cell-based; conditions: MDA-MB-231, 72 h
# [16] = system: TMD8; assay: Induction of cell cycle arrest in human TMD8 cells assessed as accumulation of cells at G2/M phase at 0.25 uM incubated for 24 hrs by PI staining based flow cytometry analysis (reference value: 20.4%); format: functional
# [17] = system: RPMI-8226; assay: Antiproliferative activity against human RPMI-8226 cells assessed as inhibition of cell viability measured after 72 hrs by MTT assay; format: functional, cell-based; conditions: RPMI-8226, 72 h
# [18] = Antitumor activity against human TMD8 cells harbouring […] xenografted in mouse model assessed as body weight change at 10 mg/kg, iv administered three times a week in presence of chidamide relative to control; format: functional
# [19] = Upregulation of BAX mRNA level in human DOHH-2 cells assessed as fold change at 300 nM measured after 6 days by PCR analysis; format: functional; conditions: time 6 day
# [20] = biological target: T2, DNA (cytosine-5)-methyltransferase 1 (Homo sapiens, UniProt P26358); assay: Inhibition of DNMT1 (unknown origin) at 5 uM preincubated for 15 mins followed by substrate and [3H-SAM] addition and measured after 60 mins by microbeta analysis relative to control; conditions: time 75.0 min
# T2 sequence (P26358 whole entry): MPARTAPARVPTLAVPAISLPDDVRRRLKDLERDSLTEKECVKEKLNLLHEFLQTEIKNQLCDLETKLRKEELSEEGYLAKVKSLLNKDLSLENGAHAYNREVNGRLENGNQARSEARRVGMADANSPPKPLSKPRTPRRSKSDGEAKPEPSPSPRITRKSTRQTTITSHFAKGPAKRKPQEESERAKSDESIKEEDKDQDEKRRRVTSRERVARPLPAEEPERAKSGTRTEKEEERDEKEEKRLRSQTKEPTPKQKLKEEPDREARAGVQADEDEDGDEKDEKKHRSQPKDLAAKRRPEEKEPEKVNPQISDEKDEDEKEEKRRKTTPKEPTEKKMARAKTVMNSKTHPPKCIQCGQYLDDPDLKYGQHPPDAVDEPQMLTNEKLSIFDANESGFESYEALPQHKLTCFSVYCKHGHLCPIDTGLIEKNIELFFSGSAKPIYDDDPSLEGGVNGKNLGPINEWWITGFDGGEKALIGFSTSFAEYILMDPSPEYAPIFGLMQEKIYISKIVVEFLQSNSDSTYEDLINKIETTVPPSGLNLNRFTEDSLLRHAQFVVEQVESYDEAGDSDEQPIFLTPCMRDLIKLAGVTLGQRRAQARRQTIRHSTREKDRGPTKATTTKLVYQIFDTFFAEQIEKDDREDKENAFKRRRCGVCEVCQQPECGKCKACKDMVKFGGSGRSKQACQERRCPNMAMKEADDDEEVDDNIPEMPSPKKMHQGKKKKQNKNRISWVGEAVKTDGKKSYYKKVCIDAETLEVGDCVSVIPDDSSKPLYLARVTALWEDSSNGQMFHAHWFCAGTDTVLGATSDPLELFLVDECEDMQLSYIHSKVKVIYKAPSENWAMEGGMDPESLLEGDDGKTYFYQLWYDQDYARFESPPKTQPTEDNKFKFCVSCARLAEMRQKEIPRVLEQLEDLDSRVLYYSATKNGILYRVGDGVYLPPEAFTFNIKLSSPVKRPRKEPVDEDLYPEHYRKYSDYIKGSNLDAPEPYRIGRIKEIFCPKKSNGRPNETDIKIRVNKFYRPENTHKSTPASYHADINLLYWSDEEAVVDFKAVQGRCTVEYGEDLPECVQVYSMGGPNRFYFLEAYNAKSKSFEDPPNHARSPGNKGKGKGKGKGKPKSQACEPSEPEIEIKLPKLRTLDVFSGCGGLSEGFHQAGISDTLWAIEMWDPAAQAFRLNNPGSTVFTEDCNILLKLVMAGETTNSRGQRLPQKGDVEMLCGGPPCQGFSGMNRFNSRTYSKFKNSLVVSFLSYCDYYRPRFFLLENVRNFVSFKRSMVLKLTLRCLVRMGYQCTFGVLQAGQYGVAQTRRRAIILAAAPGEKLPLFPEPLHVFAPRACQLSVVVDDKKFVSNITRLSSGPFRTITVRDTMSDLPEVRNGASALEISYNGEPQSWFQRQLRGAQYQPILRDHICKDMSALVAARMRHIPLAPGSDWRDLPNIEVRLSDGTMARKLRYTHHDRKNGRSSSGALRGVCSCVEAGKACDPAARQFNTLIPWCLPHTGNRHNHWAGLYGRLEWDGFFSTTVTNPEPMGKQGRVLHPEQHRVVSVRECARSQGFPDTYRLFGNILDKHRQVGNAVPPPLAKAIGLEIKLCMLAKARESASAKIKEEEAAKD
# [21] = AUC (0 to t) in Sprague-Dawley rat at 10 mg/kg, iv measured upto 24 hrs by LC/MS/MS analysis; format: ADME, organism-based; conditions: Sprague-Dawley, in vivo
# [22] = system: TMD8; assay: Antiproliferative activity against human TMD8 cells assessed as inhibition of cell viability measured after 72 hrs by MTT assay; format: functional, cell-based; conditions: TMD8, 72 h
# [23] = system: DOHH-2; assay: Antiproliferative activity against human DOHH-2 cells assessed as inhibition of cell viability measured after 72 hrs by MTT assay; format: functional, cell-based; conditions: DOHH-2, 72 h
# [24] = biological target: T1, DNA (cytosine-5)-methyltransferase 3B; assay: Inhibition of DNMT3B (unknown origin) at 5 uM preincubated for 15 mins followed by substrate and [3H-SAM] addition and measured after 60 mins by microbeta analysis relative to control; conditions: time 75.0 min
# [25] = system: DOHH-2; assay: Induction of apoptosis in human DOHH-2 cells assessed as late apoptotic cells at 1 uM measured after 48 hrs by annexin-V/FITC and PI staining based flow cytometry analysis (reference value: 3.66%); format: functional
# [26] = system: NCI-H1299; assay: Antiproliferative activity against human NCI-H1299 cells assessed as inhibition of cell viability measured after 72 hrs by MTT assay; format: functional, cell-based; conditions: NCI-H1299, 72 h
# [27] = Downregulation of BAX methylation level in human DOHH-2 cells at 100 nM measured after 6 days by PCR analysis relative to control; format: functional; conditions: time 6 day
# [28] = Subacute toxicity in Balb/C mouse assessed as effect on hemoglobin at 30 mg/kg, iv administered three times in a week for 2 weeks; format: organism-based; conditions: in vivo, 336 h
# [29] = system: TMD8; assay: Induction of cell cycle arrest in human TMD8 cells assessed as accumulation of cells at G0-G1 phase at 0.5 uM incubated for 24 hrs by PI staining based flow cytometry analysis (reference value: 40.7%); format: functional
# [30] = system: TMD8; assay: Induction of apoptosis in human TMD8 cells assessed as early apoptotic cells measured after 48 hrs by annexin-V/FITC and PI staining based flow cytometry analysis; format: functional, cell-based; conditions: dose 1-10 µM
# [31] = biological target: T2, DNA (cytosine-5)-methyltransferase 1; assay: Inhibition of DNMT1 in human DOHH-2 cells assessed as inhibition of 5-methylcytosine level at 10 to 1000 nM incubated for 48 hrs by Western blot analysis; format: cell-based; conditions: dose 10-1000 nM
# [32] = AUC (0 to t) in Sprague-Dawley rat at 10 mg/kg, po measured upto 24 hrs by LC/MS/MS analysis; format: ADME, organism-based; conditions: Sprague-Dawley, in vivo
# [33] = Antitumor activity against human TMD8 cells harbouring TP53 mutant xenografted in mouse model assessed as body weight change at 10 mg/kg, iv administered three times a week relative to control; format: functional
# [34] = biological target: T2, DNA (cytosine-5)-methyltransferase 1; assay: Inhibition of DNMT1 in human DOHH-2 cells assessed as inhibition of H3K9 methylation level at 1 uM incubated for 48 hrs by Western blot analysis; format: cell-based
# [35] = Subacute toxicity in Balb/C mouse assessed as effect on platelet at 30 mg/kg, iv administered three times in a week for 2 weeks; format: organism-based; conditions: in vivo, 336 h
compound,measurement,setting,value
CN1CCC(Nc2nc(-c3ccnc(F)c3)nc3c2ccn3CCCN2CCCC2)CC1,Activity,[1],Non-toxic
same,Activity,[2],Active
same,Activity,[3],37.3%
same,half-life,[4],21.9 h
same,Activity,[5],Dose-dependent-effect
same,Activity,[6],32.5%
same,Activity,[7],Dose-dependent-effect
same,inhibition,[8],11%
same,Activity,[9],19.9%
same,Activity,[10],6.8%
same,IC50,[11],570 nM
same,Activity,[12],12.9%
same,Activity,[13],7.58%
same,IC50,[14],> 20000 nM
same,IC50,[15],3910 nM
same,Activity,[16],24.4%
same,IC50,[17],780 nM
same,Activity,[18],1.1%
same,fold change (FC),[19],1.93
same,inhibition,[20],75%
same,AUC(0-t) at 24 h,[21],1010 ng·h/mL
same,IC50,[22],500 nM
same,IC50,[23],190 nM
same,inhibition,[24],1.1%
same,Activity,[25],13.6%
same,IC50,[26],2380 nM
same,Activity,[27],55.2%
same,Activity,[28],Non-toxic
same,Activity,[29],39%
same,Activity,[30],Dose-dependent-effect
same,inhibition,[31],Active
same,AUC(0-t) at 24 h,[32],236 ng·h/mL
same,Activity,[33],-0.9%
same,inhibition,[34],Active
same,Activity,[35],Non-toxic
